Test results reported in patent US12577234B2, “Antagonists of the muscarinic acetylcholine receptor M4” (Vanderbilt University, priority 2017, dated 2026).

Target: T1, human mAChR M4 (Homo sapiens, UniProt P08173)
T1 construct: expressed in transfected cells; host or cells: CHO-K1 (ATCC), stably co-expressing chimeric G protein Gqi5
T1 sequence (P08173 1-479): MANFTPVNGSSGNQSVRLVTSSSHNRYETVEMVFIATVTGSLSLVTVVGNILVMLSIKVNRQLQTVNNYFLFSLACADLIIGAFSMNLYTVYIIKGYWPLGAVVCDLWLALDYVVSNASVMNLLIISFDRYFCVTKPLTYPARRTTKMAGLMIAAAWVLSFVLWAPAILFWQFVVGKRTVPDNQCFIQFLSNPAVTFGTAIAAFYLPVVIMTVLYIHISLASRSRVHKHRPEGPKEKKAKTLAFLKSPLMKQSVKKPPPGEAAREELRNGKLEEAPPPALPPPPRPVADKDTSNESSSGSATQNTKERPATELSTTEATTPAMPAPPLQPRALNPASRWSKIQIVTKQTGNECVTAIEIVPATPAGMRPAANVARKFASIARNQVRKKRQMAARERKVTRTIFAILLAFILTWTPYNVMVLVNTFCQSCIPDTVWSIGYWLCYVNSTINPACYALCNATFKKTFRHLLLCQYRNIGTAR
Assay: mAChR M4 cell-based functional assay (calcium mobilization, EC80 acetylcholine), human M4
Conditions: for IC50: M4/Gqi5/CHO-K1 cells, decrease of EC80 acetylcholine response; for Emin: human M4, % ACh maximum at 30 μM
Description: Human or rat M4 cDNA, along with the chimeric G protein Gqi5, were transfected into Chinese hamster ovary (CHO-K1) cells purchased from the American Type Culture Collection using Lipofectamine2000. M4/Gqi5/CHO cells were grown in Ham's F-12 medium containing 10% heat-inactivated fetal bovine serum (FBS), 20 mM HEPES, 500 μg/mL G418 sulfate, and 200 μg/mL Hygromycin B.
For high throughput measurement of agonist-evoked increases in intracellular calcium, CHO-K1 cells stably expressing muscarinic receptors were plated in growth medium lacking G418 and hygromycin at 15,000 cells/20 μL/well in Greiner 384-well black-walled, tissue culture (TC)-treated, clear-bottom plates (VWR). Cells were incubated overnight at 37° C. and 5% CO2. […] Compound master plates were formatted in a 10 point concentration-response curve (CRC) format (1:3 dilutions) in 100% DMSO with a starting concentration of 10 or 1 mM using a BRAVO liquid handler (Agilent). Test compound CRCs were then transferred to daughter plates (240 nL) using the Echo acoustic plate reformatter (Labcyte, Sunnyvale, CA) and then diluted into assay buffer (40 μL) to a 2× stock using a Thermo Fisher Combi (Thermo Fisher Scientific, Waltham, MA).
Calcium flux was measured using the Functional Drug Screening System (FDSS) 6000 or 7000 (Hamamatsu Corporation, Tokyo, Japan) as an increase in the fluorescent static ratio. Compounds were applied to cells (20 μL, 2×) using the automated system of the FDSS at 2 seconds into the protocol and the data were collected at 1 Hz. […] Agonist activity was analyzed as a concentration-dependent increase in calcium mobilization upon compound addition. Positive allosteric modulator activity was analyzed as a concentration-dependent increase in the EC20 acetylcholine response. Antagonist activity was analyzed as a concentration-dependent decrease in the EC80 acetylcholine response; for the purposes of the tables herein, an IC50 (inhibitory concentration 50) was calculated as a concentration-dependent decrease of the response elicited by an EC80 concentration of acetylcholine. Concentration-response curves were generated using a four-parameter logistical equation in XLFit curve fitting software (IDBS, Bridgewater, NJ) for Excel (Microsoft, Redmond, WA) or Prism (GraphPad Software, Inc., San Diego, CA) or the Dotmatics software platform (Dotmatics, Bishop's Stortford, UK).

SMILES	Human M4 Emin (Table 10) [%]	IC50 (Table 10) [nM]	IC50 (Table 9) [nM]	Emin (Table 9) [%]
FC(F)(F)c1ccc(-c2ccc(N[C@H]3C[C@@H]4CN(CC5CCOCC5)C[C@@H]4C3)nn2)cn1 [Compound 211, (3aR,5s,6aS)-2-(tetrahydropyran-4-ylmethyl)-N-[6-[6-(trifluoromethyl)-3-pyridyl]pyridazin-3-yl]-3,3a,4,5,6,6a-hexahydro-1H-cyclopenta[c]pyrrol-5-amine]	24	85.5		
Cc1nn(C)cc1-c1ccc(O[C@@H]2C[C@@H]3CN(CC4CCCOC4)C[C@@H]3C2)nn1 (stereo partly drawn) [Compound 51, (3aR,5r,6aS)-5-[6-(1,3-dimethylpyrazol-4-yl)pyridazin-3-yl]oxy-2-(tetrahydropyran-3-ylmethyl)-3,3a,4,5,6,6a-hexahydro-1H-cyclopenta[c]pyrrole]			7850	19.8
Cc1nn(C)cc1-c1ccc(OCC2C[C@@H]3CN(CC4CCCOC4)C[C@@H]3C2)nn1 (stereo partly drawn) [Compound 99, (3aR,6aS)-5-[[6-(1,3-dimethylpyrazol-4-yl)pyridazin-3-yl]oxymethyl]-2-(tetrahydropyran-3-ylmethyl)-3,3a,4,5,6,6a-hexahydro-1H-cyclopenta[c]pyrrole]			2490	7.75
c1cc2c(cc1-c1ccc(N[C@H]3C[C@@H]4CN(CC5CCOCC5)C[C@@H]4C3)nn1)OCO2 [Compound 182, (3aR,5s,6aS)-N-[6-(1,3-benzodioxol-5-yl)pyridazin-3-yl]-2-(tetrahydropyran-4-ylmethyl)-3,3a,4,5,6,6a-hexahydro-1H-cyclopenta[c]pyrrol-5-amine]	4	1.87		
Cc1nn(C)cc1-c1ccc(N[C@H]2C[C@@H]3CN(CC4CC5C=CC4C5)C[C@@H]3C2)nc1 (stereo partly drawn) [Compound 151, (3aR,5s,6aS)-2-(5-bicyclo[2.2.1]hept-2-enylmethyl)-N-[5-(1,3-dimethylpyrazol-4-yl)-2-pyridyl]-3,3a,4,5,6,6a-hexahydro-1H-cyclopenta[c]pyrrol-5-amine]	3	77.3		

Further lines, results first:

Human M4 Emin (Table 10) [%]	IC50 (Table 10) [nM]	IC50 (Table 9) [nM]	Emin (Table 9) [%]	SMILES
		1.2	6.3	Fc1ccc(Cl)c(-c2ccc(N[C@H]3C[C@@H]4CN(CC5CCCOC5)C[C@@H]4C3)nn2)c1 (stereo partly drawn) [Compound 33, (3aR,5s,6aS)-N-[6-(2-chloro-5-fluoro-phenyl)pyridazin-3-yl]-2-(tetrahydropyran-3-ylmethyl)-3,3a,4,5,6,6a-hexahydro-1H-cyclopenta[c]pyrrol-5-amine]
4	0.399			Fc1cnc(Cl)c(-c2ccc(N[C@H]3C[C@@H]4CN(CC5CCOCC5)C[C@@H]4C3)nn2)c1 [Compound 220, (3aR,5s,6aS)-N-[6-(2-chloro-5-fluoro-3-pyridyl)pyridazin-3-yl]-2-(tetrahydropyran-4-ylmethyl)-3,3a,4,5,6,6a-hexahydro-1H-cyclopenta[c]pyrrol-5-amine]
		9.3	5.94	Fc1ccc(Cl)c(-c2ccc(N[C@H]3C[C@@H]4CN(CC5CC6C=CC5C6)C[C@@H]4C3)nn2)c1 (stereo partly drawn) [Compound 27, (3aR,5s,6aS)-2-(5-bicyclo[2.2.1]hept-2-enylmethyl)-N-[6-(2-chloro-5-fluoro-phenyl)pyridazin-3-yl]-3,3a,4,5,6,6a-hexahydro-1H-cyclopenta[c]pyrrol-5-amine]
3	18.8			Fc1ccc(Cl)c(-c2ccc(N[C@H]3C[C@@H]4CN(CC5CC5)C[C@@H]4C3)nn2)c1 [Compound 169, (3aR,5s,6aS)-N-[6-(2-chloro-5-fluoro-phenyl)pyridazin-3-yl]-2-(cyclopropylmethyl)-3,3a,4,5,6,6a-hexahydro-1H-cyclopenta[c]pyrrol-5-amine]
6	4			COc1cccc(-c2ccc(N[C@H]3C[C@@H]4CN(CC5CCOCC5)C[C@@H]4C3)nn2)c1 [Compound 200, (3aR,5s,6aS)-N-[6-(3-methoxyphenyl)pyridazin-3-yl]-2-(tetrahydropyran-4-ylmethyl)-3,3a,4,5,6,6a-hexahydro-1H-cyclopenta[c]pyrrol-5-amine]
